Measurements from ChEMBL document CHEMBL4145614, “Cyclopeptides from the Sponge Stylissa flabelliformis” (J Nat Prod, 2018).
Where a SMILES comes first, the peptide text is derived from it.

Key:
[1] = system: Aspergillus fumigatus; experiment: Antifungal activity against Aspergillus fumigatus HIC 6094 measured after 48 to 72 hrs; type: functional
[2] = target: Sodium/potassium-transporting ATPase; experiment: Inhibition of potassium-activated sodium/potassium ATPase in human placenta using 3-O-methylfluorescein phosphate as substrate measured for 90 secs by fluorescence assay
[3] = system: Bacillus spizizenii; experiment: Antibacterial activity against Bacillus subtilis ATCC 6633 measured after 24 hrs; type: functional; settings: ATCC 6633, 24 h
[4] = system: Micrococcus luteus; experiment: Antibacterial activity against Micrococcus luteus IFC 12708 measured after 24 hrs; type: functional; settings: IFC 12708, 24 h
[5] = system: Trichophyton mentagrophytes; experiment: Antifungal activity against Trichophyton mentagrophytes IFO 40996 measured after 48 to 72 hrs; type: functional
[6] = system: Candida albicans; experiment: Antifungal activity against Candida albicans ATCC 10231 measured after 48 to 72 hrs; type: functional
[7] = system: SK-HEP1; experiment: Cytotoxicity against human SKHEP1 cells after 72 hrs by sulforhodamine B assay; type: functional, cell-based; settings: Homo sapiens, SK-HEP1, 72 h
[8] = Inhibition of recombinant bacterial sortase A using Dabcyl-QALPETGEE-Edans as substrate measured after 1 hr by fluorescence assay; design: species or system Bacteria
[9] = system: Proteus vulgaris; experiment: Antibacterial activity against Proteus vulgaris ATCC 3851 measured after 24 hrs; type: functional; settings: ATCC 3851, 24 h
[10] = system: Staphylococcus aureus; experiment: Antibacterial activity against Staphylococcus aureus ATCC 6538P measured after 24 hrs; type: functional
[11] = system: Salmonella typhimurium; experiment: Antibacterial activity against Salmonella typhimurium ATCC 14028 measured after 24 hrs; type: functional, Salmonella enterica subsp. enterica serovar Typhimurium; settings: Salmonella enterica, ATCC 14028, 24 h
[12] = system: A549; experiment: cells; settings: Homo sapiens, A549, 72 h
Description: Cytotoxicity against human A549 cells after 72 hrs by sulforhodamine B assay

[13] = system: SNU-638; experiment: Cytotoxicity against human SNU638 cells after 72 hrs by sulforhodamine B assay; type: functional, cell-based; settings: Homo sapiens, SNU-638, 72 h
[14] = system: Trichophyton rubrum; experiment: Antifungal activity against Trichophyton rubrum IFO 9185 measured after 48 to 72 hrs; type: functional
[15] = system: K562; experiment: Cytotoxicity against human K562 cells after 72 hrs by sulforhodamine B assay; type: functional, cell-based; settings: Homo sapiens, K562, 72 h
[16] = system: MDA-MB-231; experiment: Cytotoxicity against human MDA-MB-231 cells after 72 hrs by sulforhodamine B assay; type: functional, cell-based; settings: Homo sapiens, MDA-MB-231, 72 h
[17] = system: Escherichia coli; experiment: Antibacterial activity against Escherichia coli ATCC 25922 measured after 24 hrs; type: functional; settings: ATCC 25922, 24 h
[18] = system: HCT-116; experiment: Cytotoxicity against human HCT116 cells after 72 hrs by sulforhodamine B assay; type: functional, cell-based; settings: Homo sapiens, HCT-116, 72 h

Row | Structure (SMILES) | MIC [1] [µM] | IC50 [2] [µM] | MIC [3] [µM] | MIC [4] [µM] | MIC [5] [µM] | MIC [6] [µM] | IC50 [7] [µM] | IC50 [8] [µM] | MIC [9] [µM] | MIC [10] [µM] | MIC [11] [µM] | IC50 [12] [µM] | IC50 [13] [µM] | MIC [14] [µM] | IC50 [15] [µM] | IC50 [16] [µM] | MIC [17] [µM] | IC50 [18] [µM]
1 | C[C@@H]1NC(=O)[C@H]([C@@H](C)O)NC(=O)[C@H](Cc2ccc(O)cc2)NC(=O)[C@@H]2CCCN2C(=O)[C@H](Cc2ccc(O)cc2)NC(=O)[C@H](CCCNC(=N)N)NC(=O)[C@@H]2CCCN2C(=O)[C@H](CC(N)=O)NC1=O [CYCLONELLIN] (HELM PEPTIDE1{A.N.P.R.Y.P.Y.T}$PEPTIDE1,PEPTIDE1,1:R1-8:R2$$$V2.0) | > 128 | > 100 | > 128 | > 128 | > 128 | > 128 | > 50 | > 100 | > 128 | > 128 | > 128 | > 50 | > 50 | > 128 | > 50 | > 50 | > 128 | > 50
2 | COc1cc([C@@H]2c3cc4c(cc3[C@@H](O[C@@H]3O[C@@H]5CO[C@@H](C)O[C@H]5[C@H](O)[C@H]3O)[C@H]3COC(=O)[C@H]23)OCO4)cc(OC)c1O [ETOPOSIDE] |  |  |  |  |  |  | 0.93 |  |  |  |  | 0.72 | 0.43 |  | 1.3 | 4.4 |  | 0.68
3 | CC[C@H](C)[C@@H]1NC(=O)[C@H](Cc2ccccc2)NC(=O)[C@@H]2CCCN2C(=O)[C@H](Cc2ccccc2)NC(=O)[C@@H]2CCCN2C(=O)[C@H](CCC(N)=O)NC(=O)[C@@H]2CCCN2C(=O)[C@H](Cc2ccccc2)NC1=O [PHAKELLI STATIN 11] (HELM PEPTIDE1{F.I.F.P.Q.P.F.P}$PEPTIDE1,PEPTIDE1,1:R1-8:R2$$$V2.0) | > 128 | > 100 | > 128 | > 128 | > 128 | > 128 | 1.7 | > 100 | > 128 | > 128 | > 128 | 2.8 | 6.9 | > 128 | 5.6 | 3.2 | > 128 | 1.6
4 | CC[C@H](C)[C@@H]1NC(=O)[C@H](C)NC(=O)[C@H](CC[S+](C)[O-])NC(=O)[C@H](C)NC(=O)[C@H](CC(N)=O)NC(=O)[C@H](Cc2ccccc2)NC(=O)[C@@H]2CCCN2C1=O (stereo partly specified) (HELM PEPTIDE1{A.I.P.F.N.A.[CS(=O)CC[C@H](N[*:1])C(=O)[*:2]]}$PEPTIDE1,PEPTIDE1,1:R1-7:R2$$$V2.0) | > 128 | > 100 | > 128 | > 128 | > 128 | > 128 | 13 | > 100 | > 128 | > 128 | > 128 | 15 | 12 | > 128 | 11 | 12 | > 128 | 12
5 | CC[C@H](C)[C@@H]1NC(=O)[C@@H]2CCCN2C(=O)[C@@H]2CCCN2C(=O)[C@H]([C@@H](C)CC)NC(=O)[C@H](Cc2ccc(O)cc2)NC(=O)[C@@H]2CCCN2C(=O)[C@@H]2CCCN2C(=O)[C@H](CC(C)C)NC(=O)[C@H](C(C)C)NC(=O)[C@H](Cc2ccccc2)NC1=O (HELM PEPTIDE1{F.V.L.P.P.Y.I.P.P.I}$PEPTIDE1,PEPTIDE1,1:R1-10:R2$$$V2.0) | > 128 | > 100 | > 128 | > 128 | > 128 | > 128 | 2.3 | > 100 | > 128 | > 128 | > 128 | 0.54 | 1.7 | > 128 | 0.29 | 2.5 | > 128 | 0.1
6 | CC[C@H](C)[C@@H]1NC(=O)[C@H](Cc2ccccc2)NC(=O)[C@@H]2CCCN2C(=O)[C@H](Cc2ccc(O)cc2)NC(=O)[C@H](CCC(=O)O)NC(=O)[C@@H]2CCCN2C(=O)[C@@H]2CCCN2C1=O (HELM PEPTIDE1{E.Y.P.F.I.P.P}$PEPTIDE1,PEPTIDE1,1:R1-7:R2$$$V2.0) | > 128 | > 100 | > 128 | > 128 | > 128 | > 128 | 11 | > 100 | > 128 | > 128 | > 128 | 19 | 11 | > 128 | 3.9 | 17 | > 128 | 6.2
